Measured values from patent US5641774A, “Compounds useful as antiproliferative agents and garft inhibitors” (Agouron Pharmaceuticals, Inc., priority 1995, dated 1997).

What was measured:
CCRF-CEM = assay: In vitro growth inhibition of CCRF-CEM cells, Example 2 (MTT); assay type: cell-based; conditions: Homo sapiens, continuous exposure (title: 72-hour; method: 5 days), mean IC50, read-out: IC50 Cell Culture CCRF-CEM
Method: All cultures were maintained at 37° C. 5% air-CO2 in a humidified incubator.
Stock solutions of the inhibitors were prepared in 10 mM sodium bicarbonate in water and stored in i ml aliquots at -20° C. for cell culture experiments. Cell growth inhibition was measured by a modification of the method of Mosmann, J. Immunol. Methods 65 (1983), 55-63.
Mid-log phase cells of each cell line were diluted to 18,500 cells/ml in fresh RPMI growth medium (Mediatech, Washington, D.C.) supplemented with dialyzed fetal calf serum (Hyclone Laboratories Inc., Logan, Utah) and then aliquotted into columns 2 through 12 of 96-well microtiter plates. Column 1 was filled with the same volume ([…]) of fresh medium, without cells, for use as a blank. The plates were then placed in a 37° C., 5% air-CO2 incubator. After 1 to 4 hours, plates were removed from the incubator followed by addition of Compound (21) at 10× final concentration, […] in binary dilutions, to columns 12 to 4. […] The extent of metabolized MTT was measured spectrophotometrically at 540 nm on a Molecular Devices Vmax™ kinetic microplate reader. The concentration of drug required to reduce cell growth by 50% as measured by MTT metabolism was determined by interpolation between the O.D. (minus blank) immediately above and below 50% of control O.D. (minus blank). […]

6C3HED lymphosarcoma = assay: In vivo antitumor activity, 6C3HED lymphosarcoma implanted subcutaneously in C3H/He female mice
Method: (§1) On day zero, 2 mm^2 trocar fragments of 6C3HED lymphosarcoma were implanted subcutaneously in the axillary region into groups of six C3H/He female mice. Starting on day 1, the test compound was administered intraperitoneally in 40% Encapsin given once daily for nine days. Control animals received identical treatment without test compound. The percentage inhibition given in Table 5 below was calculated by comparing the mass of the control tumors (receiving diluent only) on day 11 to those of animals receiving test compound.

[1] = system: C3H/BA mammary adenocarcinoma; assay: In vivo antitumor activity, C3H/BA mammary adenocarcinoma implanted subcutaneously in C3H/He female mice; conditions: day 14
Method: as §1, with “C3H/BA mammary adenocarcinoma” for “6C3HED lymphosarcoma”, “percentage of” for “percentage”, “inhibition” for “inhibition given in Table 5 below”, “14” for “11”

GARFT = conditions: Muggia, New Drugs, Concepts and Results in Cancer Chemotherapy, 1992; cited from earlier work

Compound | IC50 (CCRF-CEM) | % Inhibition (tumor mass) (6C3HED lymphosarcoma; 12.5 mg/kg i.p. once daily for nine days, day 11) | % Inhibition (tumor mass) (6C3HED lymphosarcoma; 25 mg/kg i.p. once daily for nine days, day 11) | % Inhibition (tumor mass) (6C3HED lymphosarcoma; 50 mg/kg i.p. once daily for nine days, printed as a word in the % Inhibition column) | % Inhibition (tumor mass) ([1]; 5 mg/kg i.p. once daily for nine days) | % Inhibition (tumor mass) ([1]; 10 mg/kg i.p. once daily for nine days) | % Inhibition (tumor mass) ([1]; 20 mg/kg i.p. once daily for nine days) | GARFT inhibition and antitumor activity (literature) (GARFT)
Nc1nc2c(c(=O)[nH]1)SC(CCc1ccc(C(=O)N[C@@H](CCC(=O)O)C(=O)O)s1)CN2 (stereo partly drawn) [Compound 21, 4-[2-(2-Amino-4-oxo-4,6,7,8-tetrahydro-3H-pyrimido[5,4-6][1,4]thiazin-6-yl)-ethyl]-2,5-thienoylamino-L-glutamic acid] | 4.3 nM | 100% | 100% | toxic | 16% | 84% | 100% | 
Nc1nc2c(c(=O)[nH]1)CC(CCc1ccc(C(=O)N[C@@H](CCC(=O)O)C(=O)O)cc1)CN2 (some centres unmarked) [5,10-dideazatetrahydrofolic acid] |  |  |  |  |  |  |  | specific tight binding inhibitor of GARFT, 5,10-dideazatetrahydrofolic acid, has been reported to show antitumor activity
